Laboratory results published in the Deep4Chem optical property database.

Test: solvent given as SMILES

Compound: CCC1=C(C)C2=Cc3c(I)c(I)c(I)n3[B-](F)(F)[N+]2=C1C
- emission maximum (in C1CCCCC1): 551.5 nm
- emission maximum (in CC(C)=O): 553 nm
- emission maximum (in CCO): 557 nm
- emission maximum (in CCOC(C)=O): 553.5 nm
- emission maximum (in CO): 554 nm
- emission maximum (in OCC(F)(F)F): 550.5 nm

Compound: CC1=CC(C)=[N+]2C1=C(c1ccc(I)cc1)c1c(C)cc(C)n1[B-]2(OCc1ccccc1)OCc1ccccc1
- emission maximum (in ClC(Cl)Cl): 521.92 nm

Compound: CC(C)[Si](C#Cc1ccc(-c2c3cccc4c5cccc6c(-c7ccc(C#C[Si](C(C)C)(C(C)C)C(C)C)cc7)c7cccc8c9cccc2c9c(c34)c(c65)c78)cc1)(C(C)C)C(C)C
- emission maximum (in Cc1ccccc1): 744 nm

Compound: N#Cc1c(N2CCCCC2)cc(-c2cccc3ccccc23)c2c1-c1ccccc1C2=O
- emission maximum (in C1CCOC1): 526 nm

Compound: Nc1ccc(/C=C/c2cccnc2)cc1
- emission maximum (in CC#N): 446 nm
- emission maximum (in CCCCCC): 390 nm

Compound: CC1=[N+]2C(=c3c4c5ccccc5cc5cccc(c6cc(C)n(c36)[B-]2(F)F)c54)C=C1
- emission maximum (in C1CCOC1): 637 nm
- emission maximum (in CCCCCC): 637 nm
- emission maximum (in CO): 637 nm
- emission maximum (in CS(C)=O): 639 nm
- emission maximum (in ClC(Cl)Cl): 637 nm
- emission maximum (in ClCCl): 638 nm

Compound: CN(C)c1ccc(/C=C/C=C/C=C/c2ccc(B(O)O)cc2)cc1
- emission maximum (in C1CCCCC1): 470 nm

Compound: Cc1c(COC(=O)c2ccccc2)n2c(OCC(=O)c3ccccc3)c(C)c(=O)n2c1=O
- emission maximum (in CCO): 457 nm

Compound: CN(C)c1ccc(C2=CC(c3ccccc3)=[N+]3C2=Nc2c(-c4ccc(N(C)C)cc4)cc(-c4ccccc4)n2[B-]3(F)F)cc1
- emission maximum (in Cc1ccccc1): 822 nm

Compound: C=CC1CN2CCC1CC2[C@H](O)c1ccnc2ccc(OC)cc12 (some centres undefined)
- emission maximum (in O): 451 nm

Compound: C(#Cc1c2ccccc2c(-c2ccccc2)c2cc3ccccc3cc12)c1ccccc1
- emission maximum (in ClCCl): 541 nm

Compound: C(#Cc1ccccc1)C(C#Cc1ccccc1)=Cc1ccccc1
- emission maximum (in ClC(Cl)Cl): 392 nm

Compound: O=S(=O)(O)c1cccc2cccc(Nc3ccccc3)c12
- emission maximum (in CCCCO): 477 nm
- emission maximum (in CCCO): 479 nm
- emission maximum (in CCO): 485 nm
- emission maximum (in CO): 490 nm
- emission maximum (in OCC(O)CO): 501 nm
- emission maximum (in OCCO): 495 nm

Compound: CCN(CC)c1ccc2c(-c3ccccc3C(=O)[O-])c3ccc(=[N+](CC)CC)cc-3oc2c1
- emission maximum (in CC#N): 579 nm
- emission maximum (in CCO): 571 nm
- emission maximum (in CN(C)C=O): 588 nm
- emission maximum (in O): 580 nm

Compound: COc1ccc(OC)c(C=O)c1
- emission maximum (in CC(C)=O): 410 nm
- emission maximum (in CCCO): 458 nm
- emission maximum (in CCO): 459 nm
- emission maximum (in CNC=O): 458 nm
- emission maximum (in CO): 466 nm
- emission maximum (in CS(C)=O): 431 nm
- emission maximum (in ClC(Cl)Cl): 427 nm
- emission maximum (in NC=O): 464 nm

Compound: O=C(c1ccc(N(c2ccccc2)c2ccccc2)cc1)[C@H]1[C@H](c2ccc(F)cc2)C[C@](O)(c2ccccn2)C[C@]1(O)c1ccccn1
- emission maximum (in C1CCOC1): 502 nm
- emission maximum (in CC#N): 523 nm
- emission maximum (in CCO): 515 nm
- emission maximum (in CCOC(C)=O): 502 nm
- emission maximum (in CN(C)C=O): 524 nm
- emission maximum (in ClCCl): 518 nm
- emission maximum (in c1ccccc1): 485 nm

Compound: O=C1[C@@H]2[C@H](C(=O)N1c1cccc3cc4ccccc4cc13)[C@H]1C[C@@H]2c2c1c(-c1ccccc1)c1ccccc1c2-c1ccccc1
- emission maximum (in ClC(Cl)Cl): 392 nm

Compound: c1ccc2c(c1)Oc1ccccc1B2c1ccc(N2c3ccccc3Oc3ccccc32)cc1
- emission maximum (in Cc1ccccc1): 522 nm

Compound: CC(C)(C)C#Cc1ccc2c3cccc4cccc(c5cccc1c52)c43
- emission maximum (in C1CCCCC1): 459.88 nm

Compound: N#Cc1cc2ccccc2oc1=O
- emission maximum (in C1CCCCC1): 412 nm
- emission maximum (in C1CCOC1): 409 nm
- emission maximum (in CC#N): 407 nm
- emission maximum (in CCOC(C)=O): 410 nm
- emission maximum (in CS(C)=O): 405 nm
- emission maximum (in ClC(Cl)Cl): 411 nm

Compound: c1ccc(-c2cc3cccc[n+]3[b-]3ccc(-c4cc[b-]5c(c4)c(-c4ccccc4)cc4cccc[n+]54)cc32)cc1
- emission maximum (in C1CCCCC1): 568 nm

Compound: CCOC(=O)c1ccc(C2CC(c3cccc4ccccc34)=NN2c2ccc(C)cc2)cc1 (centres undefined)
- emission maximum (in ClCCl): 493 nm

Compound: C[N+]1=C(/C=C/C=C2/N(CCCc3ccccc3)c3ccccc3C2(C)C)C(C)(C)c2ccccc21
- emission maximum (in CS(C)=O): 567 nm

Compound: c1ccc2c(c1)c1ccccc1n2-c1ccc2c(c1)c1ccccc1n2-c1cc2c3ccccc3n3c4ccccc4c(c1)c23
- emission maximum (in C1CCCCC1): 391.83 nm
- emission maximum (in C1CCOC1): 402.09 nm
- emission maximum (in Cc1ccccc1): 400 nm

Compound: CCCCCCN1C(=O)c2cccc3c(-c4ccc(Cl)s4)ccc(c23)C1=O
- emission maximum (in ClC(Cl)Cl): 482 nm

Compound: c1ccc2c(c1)Cc1ccccc1N2c1c2ccccc2c(N2c3ccccc3Cc3ccccc32)c2ccccc12
- emission maximum (in Cc1ccccc1): 553 nm

Compound: CC(C)CN1C(=O)/C(=C/c2ccc([N+](=O)[O-])cc2)C=C1c1ccccc1
- emission maximum (in C1COCCO1): 601 nm

Compound: CCN(CC)c1ccc2cc(-c3nc4ccccc4n3-c3ccccc3)c(=O)oc2c1
- emission maximum (in ClCCl): 479 nm

Compound: COc1cc(OC)c2c(c1)C(=O)c1ccccc1-2
- emission maximum (in C1CCCCC1): 537 nm
- emission maximum (in CC#N): 592 nm

Compound: CCCCCn1c2cc(/C=C/c3ccc(N(c4ccccc4)c4ccccc4)cc3)ccc2c2ccc(/C=C/c3ccc(N(c4ccccc4)c4ccccc4)cc3)cc21
- emission maximum (in Cc1ccccc1): 451 nm

Compound: CC(C)(C)c1ccc2c(c1)oc1nc3oc4ccc(-n5c6ccccc6c6ccccc65)cc4c3cc12
- emission maximum (in ClC(Cl)Cl): 417 nm

Compound: CN(C)c1ccc(C(=O)Nc2cccc(Cl)c2)cc1
- emission maximum (in C1CCCCC1): 338 nm
- emission maximum (in C1CCOC1): 455 nm
- emission maximum (in CC#N): 496 nm
- emission maximum (in CCOCC): 445 nm

Compound: Oc1ccc2ccccc2c1/C=N/C1CCCCC1/N=C/c1c(O)ccc2ccccc12 (centres undefined)
- emission maximum (in CC#N): 471 nm

Compound: CC(C)(C)c1ccc(-n2c(-c3ccc(-c4ccc(-c5c(-c6ccccc6)nc6ccccn56)cc4)cc3)nc3c4ccccc4c4ccccc4c32)cc1
- emission maximum (in ClCCl): 426 nm

Compound: COc1ccc(/C=C/c2nc3ccccc3s2)cc1
- emission maximum (in C1CCCCC1): 400 nm
- emission maximum (in CO): 420 nm

Compound: Cc1csc2[n+]1[B-](F)(F)n1c(c3cccc4cccc1c43)=N2
- emission maximum (in C1CCOC1): 500 nm
- emission maximum (in CC#N): 499 nm
- emission maximum (in CCCCCC): 488 nm
- emission maximum (in Cc1ccccc1): 502 nm
- emission maximum (in ClCCl): 527 nm

Compound: O=P1(c2ccccc2)C2=C(c3ccccc31)C(c1ccccc1)(c1ccccc1)c1cc(N(c3ccccc3)c3ccccc3)ccc12 (centres undefined)
- emission maximum (in CC#N): 594 nm
- emission maximum (in CO): 608 nm
- emission maximum (in Cc1ccccc1): 522 nm

Compound: COc1cc2cc(C#Cc3ccc(/C=C(\C#N)C(=O)O)cc3)c(=O)oc2cc1OC
- emission maximum (in CC#N): 464 nm

Compound: CC(C)CN1C(=O)/C(=C/c2ccc(C#N)cc2)C=C1c1ccccc1
- emission maximum (in C1COCCO1): 598 nm

Compound: CCOC(=O)C1=C(C(=O)OCC)C2(c3cc(Cl)ccc3-c3ccc(Cl)cc32)C2(/C=C/c3ccccc3)c3cc(OC)c(OC)cc3CCN12 (centres undefined)
- emission maximum (in ClCCl): 456 nm

Compound: Cc1cc(-c2ccccc2)nc2c1ccc1nc(-c3ccccc3)cn12
- emission maximum (in CC#N): 458 nm
- emission maximum (in CCCCOC(C)=O): 449 nm
- emission maximum (in CCOC(C)=O): 454 nm
- emission maximum (in CO): 450 nm
- emission maximum (in ClC(Cl)Cl): 448 nm
- emission maximum (in ClCCl): 450 nm
- emission maximum (in c1ccccc1): 451 nm

Compound: CC1(C)c2ccccc2-c2cc3c(cc21)c1ccccc1n3-c1ccncc1
- emission maximum (in ClCCl): 370 nm

Compound: COc1ccccc1C1=[N+]2C(=C(c3ccccc3)c3c4ccccc4c(-c4ccccc4OC)n3[B-]2(F)F)c2ccccc21
- emission maximum (in ClCCl): 652 nm
